# From patent US5952510A, “1,3-dihydro-1-(phenylalkenyl)-2H-imidazol-2-one derivatives having PDE IV and cytokine inhibiting activity” (Janssen Pharmaceutica, N.V., priority 1995, dated 1999)
# Legend:
# [1] = target: T1, recombinant human MNL phosphodiesterase type IV B (Homo sapiens, UniProt Q07343); test: Inhibition of recombinant human mononuclear lymphocyte (MNL) phosphodiesterase type IV B produced in insect cells with a baculovirus vector; type: biochemical; conditions: 0.8 μM 3H-cAMP, pH 8, 37° C., 10 min; calculated graphically
# T1 construct: made in house; host or cells: insect cells infected with recombinant baculovirus
# Procedure: Inhibition of recombinant human mononuclear lymphocyte (MNL) phosphodiesterase type IV B produced in insect cells with a baculovirus vector, The alleviating and/or curing effect of the instant compounds on allergic and atopic diseases was assessed by an in vitro assay system to detect an inhibiting effect on the recombinant human MNL phosphodiesterase type IV B.
# Seventy-two hours after infection with recombinant baculovirus, the insect cells were harvested and pelleted at 500 g for 5 minutes. The cells were lysed in 10 ml lysis-buffer consisting of 20 mM Tris, 10 mM EGTA, 2 mM Na2 EDTA, 1% Triton-X-100, 1 mM Na3 VO4, 10 mM NaF, 2 μg/ml of leupeptine, pepstatine and aprotinine, 0.3 μg/ml benzamidine and 100 μg/ml TPCK pH 7.5. After 5 minutes on ice, solubilized cells were centrifuged at 4000 rpm for 15 minutes at 4° C. The resulting supernatant was filtered through a 0.45 μm filter (Millipore) and brought to TBS buffer (50 mM Tris, 150 mM NaCl pH 7.4).
# The supernatant containing phosphodiesterase (PDE) type IV B, was subsequently loaded onto a 5 ml anti-FLAG-M2 affinity gel column, previously activated with 5 ml 100 mM glycine pH 3.5 and equilibrated with 20 ml 50 mM Tris, 150 mM NaCl pH 7.4. After washing the column with equilibration buffer, PDE IV was eluted in 1.5 ml fractions containing 37.5 μl 1M Tris pH 8. The fractions were dialyzed overnight against 20 mM Tris, 2 mM Na2 EDTA and 400 mM NaCl pH 7.5 and tested for PDE IV activity. Indentification was done on SDS PAGE and Western Blot (anti-FLAG-M2). Active fractions were pooled, brought to 10% glycerol and stored at -70° C.
# The incubation mixture (pH 8) (200 μl) contained 20 mM Tris, 10 mM magnesium sulphate, 0.8 μM ^3 H-cAMP (310 mCi/mmole) and the phosphodiesterase type IV, the amount depending on the enzymatic activity. […]
# The inhibiting effect of the present compounds on recombinant human MNL phosphodiesterase PDE IV B was measured at different concentrations of the instant compounds. The IC50 values (expressed in M) were calculated graphically from the thus obtained inhibition values.
# [2] = system: Dextran-induced oedema formation in mouse ear; test: Dextran-induced oedema formation in mouse ear; type: in vivo, Male Swiss mice; conditions: 5 mg/kg, oral, one hour before intravenous dextran T500 + pontamine sky-blue dye; compared with background extravasation
# Procedure: Dextran-induced oedema formation in mouse ear.
# Systemic injection of dextran T500 in normal, non-sensitized mice elicits increased vascular permeability, leading to extravasation and oedema of the extremities. When dextran is injected together with a blue dye, blueing of the ears is the most prominent feature of oedematous response.
# Male Swiss mice weighing 24-26 g were orally pretreated with the test compound dissolved in PEG-200 at different concentrations or solvent. One hour later, the mice were given an intravenous injection with an isotonic saline solution containing 12 mg/ml dextran T500 and 2.6 mg/ml pontamine sky-blue dye, in a volume of 0.1 ml per 10 g body weight. One hour and forty-five minutes later, the animals are sacrificed by ether and their ears removed. Extraction and quantification of the extravasated dye is done as described by Van Wauwe and Goossens (Drug Dev. Res. 1986, 8, 213-218).
# The extravasation of the dye is characterized by the blueing value which is defined as the concentration of the extracted dye in both ears. The background blueing value was determined once as the mean blueing value obtained by injecting a group of mice with a saline solution containing only dextran T500 and the blue dye. Table 1 lists the percentage inhibition of the extravasation of the dye when compared with the background extravasation of the dye when the test compound was administered at a dose of 5 mg/kg.
# T1 sequence (Q07343 whole entry): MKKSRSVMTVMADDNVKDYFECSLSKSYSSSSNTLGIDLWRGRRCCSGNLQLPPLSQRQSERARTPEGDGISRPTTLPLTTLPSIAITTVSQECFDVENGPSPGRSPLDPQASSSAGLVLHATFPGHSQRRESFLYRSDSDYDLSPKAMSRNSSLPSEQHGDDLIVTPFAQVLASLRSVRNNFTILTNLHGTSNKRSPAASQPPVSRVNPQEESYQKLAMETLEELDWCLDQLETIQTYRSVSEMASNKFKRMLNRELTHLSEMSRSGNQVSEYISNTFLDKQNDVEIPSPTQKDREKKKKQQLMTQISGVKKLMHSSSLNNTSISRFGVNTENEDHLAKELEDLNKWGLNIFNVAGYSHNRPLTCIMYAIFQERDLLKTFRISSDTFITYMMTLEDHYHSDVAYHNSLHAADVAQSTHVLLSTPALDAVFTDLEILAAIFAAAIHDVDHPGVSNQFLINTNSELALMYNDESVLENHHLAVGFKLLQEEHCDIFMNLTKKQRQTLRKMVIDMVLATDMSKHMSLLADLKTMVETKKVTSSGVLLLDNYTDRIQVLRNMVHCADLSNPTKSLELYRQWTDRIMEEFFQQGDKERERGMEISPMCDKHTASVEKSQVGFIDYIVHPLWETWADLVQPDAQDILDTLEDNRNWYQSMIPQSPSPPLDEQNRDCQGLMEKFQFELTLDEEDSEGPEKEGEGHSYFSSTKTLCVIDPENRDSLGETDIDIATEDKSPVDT
IC50 [1] [nM],SMILES,% inhibition of the extravasation of the dye [2] [%]
< 1000,"COc1ccc(/C(=C/n2cc[nH]c2=O)c2ccccc2)cc1OC1CCCC1 [Compound 2, (E)-1-[2-[3-(cyclopentyloxy)-4-methoxyphenyl]-2-phenylethenyl]-1,3-dihydro-2H-imidazol-2-one]",15.5
< 1000,"CCOC(=O)C/C(=C\n1cc[nH]c1=O)c1ccc(OC)c(OC2CCCC2)c1 [Compound 4, ethyl (E)-3-(cyclopentyloxy)-β-[(2,3dihydro-2-oxo-1H-imidazol-1-yl)methylene]-4methoxybenzene-propanoate]",25.9
–,"COc1ccc(/C(=C\n2cc[nH]c2=O)CC(=O)O)cc1OC1CCCC1 [Compound 7, (Z)-3-(cyclopentyloxy)-β-[(2,3-dihydro-2-oxo-1H-imidazol-1-yl)methylene]4-methoxybenzenepropanoic acid]",49.9
–,"COc1ccc(C(=CN2CCNC2=O)c2ccccc2)cc1OC [Compound 8, 1-[2-(3,4-dimethoxyphenyl)-2-phenylethenyl]-2-imidazolidinone]",17.9
–,"COc1ccc(C(=CN2CCN(C(C)=O)C2=O)c2ccccc2)cc1OC [Compound 9, 1-acetyl-3-[2-(3,4dimethoxyphenyl)-2-phenylethenyl]-2-imidazolidinone]",11.1
–,"COc1ccc(/C(=C/n2ccn(C(c3ccccc3)c3ccccc3)c2=O)c2ccccc2)cc1OC1CCCC1 [Compound 10, (E)-1-[2-[3-(cyclopentyloxy)-4-methoxyphenyl]-2-phenylethenyl]-3-(diphenylmethyl)-1,3dihydro-2H-imidazol-2-one]",40.1
–,"COc1ccc(/C(=C\n2ccn(C(c3ccccc3)c3ccccc3)c2=O)c2ccccc2)cc1OC1CCCC1 [Compound 11, (Z)-1-[2-[3-(cyclopentyloxy)-4-methoxyphenyl]-2-phenylethenyl]-3-(diphenylmethyl)-1,3-dihydro-2H-imidazol-2-one]",19.3
< 1000,"COc1ccc(/C(C)=C\n2ccn(C(c3ccccc3)c3ccccc3)c2=O)cc1OC1CCCC1 [Compound 12, (Z)-1-[2-[3-(cyclopentyloxy)-4-methoxyphenyl]-1-propenyl]-3-(diphenylmethyl)-2H-imidazol-2-one]",–
